Test results published in US20240018110A1, “RADIOLABELED COMPOUNDS TARGETING THE PROSTATE-SPECIFIC MEMBRANE ANTIGEN” (THE UNIVERSITY OF BRITISH COLUMBIA, priority 2020, published 2024).

Test system: LNCaP xenograft
Experiment: Biodistribution of 68Ga-labeled compounds in mice bearing LNCaP xenograft
Format: in vivo
Settings: 1 h p.i.
Protocol: All chemicals and solvents were obtained from commercial sources, and used without further purification. PSMA-targeted peptides were synthesized using a solid phase approach on an AAPPTec (Louisville, KY) Endeavor 90 peptide synthesizer. Purification of peptides was performed on an Agilent 1260 Infinity II Preparative System equipped with a model 1260 Infinity II preparative binary pump, a model 1260 Infinity variable wavelength detector (set at 220 nm), and a 1290 Infinity II preparative open-bed fraction collector. The HPLC column used was a preparative column (Gemini, NX—C18, 5 μ, 50×30 mm) purchased from Phenomenex. The collected HPLC eluates containing the desired peptide were lyophilized using a Labconco (Kansas City, MO) FreeZone 4.5 Plus freeze-drier. Mass analyses were performed using a Waters LC-MS system with an ESI ion source. C18 Sep-Pak cartridges (1 cm^3, 50 mg) were obtained from Waters (Milford, MA). ^68Ga was eluted from an iThemba Labs (Somerset West, South Africa) generator. Radioactivity of ^68Ga-labeled peptides was measured using a Capintec (Ramsey, NJ) CRC®-25R/W dose calibrator, and the radioactivity of mouse tissues collected from biodistribution studies were counted using a Perkin Elmer (Waltham, MA) Wizard2 2480 automatic gamma counter.

| Biodistribution, Adrenal (Avg) | Biodistribution, Blood (Avg) | Biodistribution, Bone (Avg) | Biodistribution, Brain (Avg) | Biodistribution, Fat (Avg) | Biodistribution, Heart (Avg) | Biodistribution, Intestine (Avg) | Biodistribution, Kidney (Avg) | Biodistribution, LNCaP tumor (Avg) | Biodistribution, Liver (Avg) | Biodistribution, Lungs (Avg) | Biodistribution, Muscle (Avg) | Biodistribution, Pancreas (Avg) | Biodistribution, Salivary gland (Avg) | Biodistribution, Seminal (Avg) | Biodistribution, Spleen (Avg) | Biodistribution, Stomach (Avg) | Biodistribution, Testes (Avg) | Biodistribution, Thyroid (Avg) | Biodistribution, Urine (Avg) | Structure (SMILES) | also measured |
| --- | --- | --- | --- | --- | --- | --- | --- | --- | --- | --- | --- | --- | --- | --- | --- | --- | --- | --- | --- | --- | --- |
| 0.98 % ID/g | 3.91 % ID/g | 0.23 % ID/g | 0.07 % ID/g | 0.62 % ID/g | 1.03 % ID/g | 0.56 % ID/g | 4.02 % ID/g | 1.43 % ID/g | 0.81 % ID/g | 2.15 % ID/g | 0.41 % ID/g | 0.38 % ID/g | 1.56 % ID/g | 0.85 % ID/g | 0.61 % ID/g | 0.19 % ID/g | 0.82 % ID/g | 0.67 % ID/g | 367.12 % ID/g | O=C(O)CSCC(NC(=O)NC(Cc1ccc(NC(=O)C(Cc2c3ccccc3cc3ccccc23)NC(=O)C2CCC(CNC(=O)CN3CCN(CC(=O)O)CCN(CC(=O)O)CCN(CC(=O)O)CC3)CC2)cc1)C(=O)O)C(=O)O.[68Ga] (stereo not shown) [^68Ga-CCZ01188] |  |
| 0.36 % ID/g | 0.58 % ID/g | 0.15 % ID/g | 0.02 % ID/g | 0.12 % ID/g | 0.18 % ID/g | 0.40 % ID/g | 4.10 % ID/g | 14.08 % ID/g | 0.27 % ID/g | 0.43 % ID/g | 0.15 % ID/g | 0.22 % ID/g | 0.27 % ID/g | 11.24 % ID/g | 0.23 % ID/g | 0.07 % ID/g | 0.51 % ID/g | 0.16 % ID/g | 343.93 % ID/g | O=C(O)CCCC(NC(=O)NC(COCCNC(=O)C(Cc1c2ccccc2cc2ccccc12)NC(=O)C1CCC(CNC(=O)CN2CCN(CC(=O)O)CCN(CC(=O)O)CCN(CC(=O)O)CC2)CC1)C(=O)O)C(=O)O.[68Ga] (stereo not shown) [^68Ga-CCZ02011] | Biodistribution, Lacrimal (Avg) (Lacrimal): 0.33 % ID/g |
| 0.19 % ID/g | 0.43 % ID/g | 0.07 % ID/g | 0.01 % ID/g | 0.07 % ID/g | 0.11 % ID/g | 0.16 % ID/g | 2.18 % ID/g | 4.84 % ID/g | 0.15 % ID/g | 0.32 % ID/g | 0.07 % ID/g | 0.08 % ID/g | 0.12 % ID/g | 0.47 % ID/g | 0.12 % ID/g | 0.03 % ID/g | 0.14 % ID/g | 0.13 % ID/g | 384.68 % ID/g | O=C(O)CCCC(NC(=O)NC(CNC(=O)CNC(=O)C(Cc1c2ccccc2cc2ccccc12)NC(=O)C1CCC(CNC(=O)CN2CCN(CC(=O)O)CCN(CC(=O)O)CCN(CC(=O)O)CC2)CC1)C(=O)O)C(=O)O.[68Ga] (stereo not shown) [68Ga-CCZ01198] |  |
